Structures can show the parent of a compound that is named as a salt. Where two headings read alike, the source gives them in different places. Each block holds one compound with its values, some of them ahead of it.
Experiments:
12-lipoxygenase = target: T1, 12-lipoxygenase (Bos taurus, UniProt F1MFA8); assay: inhibiting action upon blood platelet 12-lipoxygenase; type: biochemical, bovine; conditions: for inhibition at 1000 µM: pH 7.4, with 1,000 μM of each compound, read-out: 12-lipoxygenase, inhibiting ratio
T1 construct: a preparation prepared from bovine blood platelets was used as an enzyme source; from tissue; host or cells: bovine blood platelets
T1 sequence (F1MFA8 1-663): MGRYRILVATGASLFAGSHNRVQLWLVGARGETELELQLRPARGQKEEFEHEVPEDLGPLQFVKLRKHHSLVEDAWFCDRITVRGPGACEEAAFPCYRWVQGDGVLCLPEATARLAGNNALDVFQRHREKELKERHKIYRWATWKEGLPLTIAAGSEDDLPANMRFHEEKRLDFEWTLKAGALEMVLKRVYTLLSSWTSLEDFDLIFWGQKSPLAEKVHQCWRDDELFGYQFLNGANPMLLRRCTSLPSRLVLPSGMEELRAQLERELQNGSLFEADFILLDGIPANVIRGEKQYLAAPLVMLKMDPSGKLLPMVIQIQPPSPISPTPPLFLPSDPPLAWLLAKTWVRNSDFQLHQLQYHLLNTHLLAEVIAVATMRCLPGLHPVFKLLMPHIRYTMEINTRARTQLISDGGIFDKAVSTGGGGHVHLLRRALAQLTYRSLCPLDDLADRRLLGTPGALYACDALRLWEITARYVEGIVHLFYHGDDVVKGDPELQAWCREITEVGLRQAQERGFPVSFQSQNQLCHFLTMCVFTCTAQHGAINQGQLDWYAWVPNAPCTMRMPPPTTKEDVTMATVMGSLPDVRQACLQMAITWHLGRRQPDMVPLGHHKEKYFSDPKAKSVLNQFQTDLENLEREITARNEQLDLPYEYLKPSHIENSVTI
Procedure: (§1) An inhibiting action of 2-n-heptyl-4-hydroxyquinoline-N-oxide upon lipoxygenase was determined by in vitro test according to the following procesure:
(a) Procedure for determining the inhibiting action upon blood platelet 12-lipoxygenase:
Determination was carried out according to D. H. Nugtern, et al, procedure (Biochem. Biophys. Acta, 380, 299 (1975)). That is, a preparation prepared from bovine blood platelets was used as an enzyme source. The blood platelet lipoxygenase preparation and 2-n-heptyl-4-hydroxyguinoline-N-oxide were brought into contact with each other in a 0.01M tris hydrochloric acid buffer solution (pH 7.4) at 30° C. for 5 minutes in advance, and then 35 μM of [^14 C]arachidonic acid was added thereto. The mixture was incubated at 30° C. for 10 minutes. The reaction product was extracted with ethyl acetate/methanol/0.2M citric acid (30/4/1), and then separated by thin layer chromatography (developing solvent system: ligroin/ethyl ether/acetic acid: (50/50/1). The spot of 12-hydroxy-5,8,10,14-eicosatetraenoic acid in the product was scraped off and ^14 C was measured by a liquid scintillation counter.
(§2) Inhibiting actions of compounds in Table 2 upon lipoxygenase were determined in the same manner as in Test Example 1.

5-lipoxygenase = target: T2, 5-lipoxygenase (Rattus norvegicus, UniProt P12527); assay: inhibiting action upon leukocyte 5-lipoxygenase (RBL-1 cells as enzyme source); type: biochemical
T2 construct: leukemic basophilic granulocyte cells of rats (RBL-1, ATCC No. CRL 1378) were used as a 5-lipoxygenase enzyme source; host or cells: RBL-1 (rat basophilic leukemia cells)
T2 sequence (P12527 1-673): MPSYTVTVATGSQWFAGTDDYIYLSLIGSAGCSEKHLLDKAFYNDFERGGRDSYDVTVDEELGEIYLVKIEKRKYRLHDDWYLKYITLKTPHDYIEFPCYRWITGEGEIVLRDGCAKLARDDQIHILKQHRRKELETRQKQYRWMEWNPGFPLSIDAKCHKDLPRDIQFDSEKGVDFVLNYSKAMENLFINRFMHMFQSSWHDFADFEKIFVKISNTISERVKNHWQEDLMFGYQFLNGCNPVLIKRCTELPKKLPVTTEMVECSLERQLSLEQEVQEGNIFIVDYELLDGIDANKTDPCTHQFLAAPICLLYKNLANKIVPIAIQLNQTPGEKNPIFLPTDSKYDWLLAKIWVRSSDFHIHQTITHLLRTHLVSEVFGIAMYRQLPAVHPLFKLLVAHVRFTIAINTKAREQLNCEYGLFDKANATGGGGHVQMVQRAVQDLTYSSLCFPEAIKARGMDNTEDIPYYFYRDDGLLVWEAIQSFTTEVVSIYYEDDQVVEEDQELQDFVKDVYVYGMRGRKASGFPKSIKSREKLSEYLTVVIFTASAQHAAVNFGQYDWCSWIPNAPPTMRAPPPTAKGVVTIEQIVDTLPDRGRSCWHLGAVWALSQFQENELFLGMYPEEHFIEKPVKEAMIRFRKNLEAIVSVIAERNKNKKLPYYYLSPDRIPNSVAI
Procedure: as §1
(b) Procedure for determining the inhibiting action upon leukocyte 5-lipoxygenase:
Determination was carried out according to modified B. A. Jakschik, et al, procedure (Biochem. Biophys. Res. Commun. 95, 103 (1980)). That is, leukemic basophilic granulocyte cells of rats (RBL-1, ATCC No. CRL 1378) were used as a 5-lipoxygenase enzyme source. The cells and 2-n-heptyl-4-hydroxyquinoline-N-oxide were brought into contact with each other in a 0.07 M tris hydrochloric acid buffer solution in the presence of 0.7 mM calcium chloride at 37° C. for 5 minutes, and then 20 μM of [^14 C]-arachidonic acid was added thereto. The mixture was incubated at 37° C. for 5 minutes. The reaction product was extracted with ethyl acetate/methanol/0.2M citric acid (30/4/1), and then separated by thin layer chromatography (developing solvent: petroleum ether/ethyl ether/acetic acid: 50/50/1). Spots of 5-hydroxy-[…]-eicosatetraenoic acid in the product were scraped off and ^14 C was measured by a liquid scintillation counter.
as §2

SRS-A production = assay: suppressing action upon production of SRS-A (lung pieces of actively sensitized guinea pigs, EWA challenge); type: cell-based, guinea pig; conditions: for inhibition at 8.3 µg/mL: 8.3 μg/ml; for suppression of the production of SRS-A (in words): Table 4, 8.3 μg/ml
Procedure: An inhibiting action of 2-n-heptyl-4-hydroxyquinoline-N-oxide upon SRS-A production was determined according to the following procedure:
According to Watanabe-Kohno and Parker procedure (J. Immunol., 125, 946 (1980)), 20 mg of egg white albumin (hereinafter abbreviated as EWA), was dissolved in 10 ml of physiological saline solution, and the resulting solution was added to an equal volume of Freund's complete adjuvant to prepare an emulsion. Then, 1 ml of the emulsion was administered subcutaneously in the plantar surface of the hind paws of guinea pigs to make the animals actively sensitized. Three to five weeks thereafter, the guinea pigs were sacrified by exsanguination from the carotid artery, and the Tyrode's solution was perfused through right cardiac ventricle to wash lungs and remove blood. Then, the lungs were isolated and cut to pieces of about 2 mm size in the chilled Tyrode's solution with scissors, filtered through 2 sheets of gauze. Then, 400 mg of the fragments were distributed into individual test tubes containing 5 ml of the Tyrode's solution. The lung pieces were preincubated at 37° C. for 10 minutes, 0.5 ml of a test solution at various concentrations was added thereto, and the incubation was continued for 10 minutes at 37° C. Then, 0.5 ml of EWA (20 mg/ml) was added thereto, and the mixture was further incubated for 15 minutes. The reaction was discontinued by ice-cooling the mixture, and then the mixture was filtered through a sheet of gauze.
(§3) The amount of SRS-A in the filtrate was bioassayed using guinea pig ileum according to the Magnus procedure. That is, the ileums were suspended in 10 ml of organ bath filled with the Tyrode's solution (31 ±1° C., aerated with 95% O2 +5% CO2 gas mixture), and their movements were recorded on a recorder with a pen (Hitachi: QPD54) through an isotonic transducer (Nihon Koden: JD112S). After the ileum contraction reaction by 10^-7 M histamine was stabilized, 1 ml of the filtrate was added to the organ bath in the presence of 5 x 10^-7 M atropine and 10^-6 M tripelennamine to cause the ileum contraction reaction. It was known that the ileum contraction reaction by SRS-A was increased by repetitive applications and, therefore, after the reaction by at least 5 applications of the SRS-A prepared in advance became constant, control filtrate and a filtrate containing a test solution were used.
Suppressing actions of 2-n-propyl-4-hydroxyquinoline-N-oxide and 2-n-undecyl-4-hydroxyquinoline-N-oxide upon production of SRS-A were determined in the same manner as in Test Example 3.

[1] = test system: airway contraction reaction of passively sensitized guinea pigs; assay: suppressing action upon anaphylactic airway contraction reaction of passively sensitized guinea pigs; type: in vivo, guinea pig; conditions: 10 mg/kg P.O. one hour before antigen EWA (1 mg/kg); 6 guinea pigs vs 18 control
Procedure: Suppressing action of 2-n-heptyl-4-hydroxyquinoline-N-oxide upon the airway contraction reaction of passively sensitized guinea pigs was determined according to the following procedure:
Anaphylactic airway contraction reaction of passively sensitized guinea pigs by antigen administration was determined according to modified Konzett and Rossler procedure (Arch. exp. Path. Pharmakol., 195, 71 (1940)). Anti-EWA guinea pig serum (1 ml/animal) was intraperitoneally administered into normal guinea pigs to make the animals passively sensitized, and 24 hours thereafter, a tracheal cannule was inserted and fixed to the guinea pig under urethane anesthesia. An artificial respirator and a bronchospasm transducer were connected to the cannule. After the spontaneous respiration was stopped by intravenous injection of 10 mg/kg of gallamine triethiodide, 1 mg/kg of EWA was injected into the jugular vein to cause anaphylactic airway contraction, and the volume of air overflow from the tracheal cannule sideway was recorded on a polygraph through the transducer. After the end of measurement, the trachea was completely blockaded. The state of complete blockade was regarded as a maximum contraction, and the results were given in percentage to the maximum contraction.

SRS-A = assay: guinea pig ileum contraction reaction by SRS-A (Magnus procedure); conditions: 3×10^-7 M
Procedure: as §3

[2] = Cavia porcellus, read-out: Suppressing ratio, production of SRS-A
[3] = Table 2, same manner as Test Example 1

Structure (SMILES): CCCCCCCc1cc(O)c2ccccc2[n+]1[O-] [2-n-heptyl-4-hydroxyquinoline-N-oxide]
IC50 (12-lipoxygenase): 30 µM
inhibiting action upon 12-lipoxygenase compared with BW-755C (12-lipoxygenase; in words): almost equal to that of known compound
IC50 (5-lipoxygenase): 0.15 µM
inhibiting action upon 5-lipoxygenase compared with BW-755C (5-lipoxygenase; in words): much better in the present compound
formation of SRS-A (in words) (SRS-A production; 4, 40, and 400 μg/ml): suppressed by application of 4, 40, and 400 μg/ml of the present compound in a dose dependent manner
inhibition at 4 µg/mL (SRS-A production; [2]): 26.2 ± 4.2%
inhibition at 40 µg/mL (SRS-A production; [2]): 60.1 ± 3.7%
inhibition at 400 µg/mL (SRS-A production; [2]): 84.3 ± 1.1%
intensity of SRS-A suppression compared with BW-755C (SRS-A production; in words, measured at the same time): obviously better than the suppressing action of BW-755C
suppression of airway contraction reaction (increase in air overflow) [1]: significantly suppressed

Structure (SMILES): CCCCCCCCCCCCCCCc1cc(O)c2ccccc2[n+]1[O-] [2-n-pentadecyl-4-hydro-xy-quinoline-N--oxide]
inhibition at 1000 µM (12-lipoxygenase; 10 min): 56%
IC50 (5-lipoxygenase; [3]): 1 µM

Structure (SMILES): CCCc1cc(O)c2ccccc2[n+]1[O-] [2-n-propyl-4-hydroxyquinoline-N-oxide]
inhibition at 1000 µM (12-lipoxygenase; 10 min): 46.3%
IC50 (5-lipoxygenase; [3]): 110 µM
inhibition at 8.3 µg/mL (SRS-A production; [2]): 34.1%
suppression of the production of SRS-A (in words) (SRS-A production): suppress the production of SRS-A

Structure (SMILES): CCCc1c(OCC(O)COc2ccc3c(=O)cc(C(=O)O)oc3c2CCC)ccc(C(C)=O)c1O (centres unmarked) [FPL-55712]
suppression of ileum contraction reaction by SRS-A (SRS-A): almost completely suppressed

Continued, in another order:

inhibition at 1000 µM (12-lipoxygenase; 10 min): 55.7%
IC50 (5-lipoxygenase; [3]): 0.2 µM
Structure (SMILES): CCCCCCCCCCCc1cc(O)c2ccccc2[n+]1[O-] [2-n-undecyl-4-hydroxyquinoline-N-oxide]
inhibition at 8.3 µg/mL (SRS-A production; [2]): 17.5%
suppression of the production of SRS-A (in words) (SRS-A production): suppress the production of SRS-A

IC50 (12-lipoxygenase; bovine blood platelet preparation, 35 μM [14C]arachidonic acid, pH 7.4, 30° C., 10 min, read-out: IC50, 12-lipoxygenase): 25 µM
Structure (SMILES): NC1=NN(c2cccc(C(F)(F)F)c2)CC1 [BW-755C, 3-amino-1-(3-trifluoromethylphenyl)-2-pyrazoline hydrochloride, reference compound]
inhibition at 40 µg/mL (SRS-A production; Cavia porcellus, 40 μg/ml, read-out: Suppressing ratio, production of SRS-A): 23.8 ± 8.8%

Source: patent US4618613A, “Preventive and healing composition for diseases due to lipoxygenase metabolic products” (Kyowa Hakko Kogyo Company, Ltd., priority 1983, dated 1986)
